Source: patent publication US11603395B2, “Antitumor peptide and use thereof” (TOAGOSEI CO., LTD, priority 2019, dated 2023)
Like-named read-outs stand apart in the source and are kept apart here. Where no end group is shown, it is not given here.

Tests used:
[1] = test system: human kidney cancer cell lines (CAKI2); experiment: Antitumor index from viability of CAKI2 cells vs MCF-12F normal cells (Cell Counting Kit-8, WST-8); assay type: cell-based; conditions: 48 hours; for Proliferation of CAKI2 cells (in words): 6.25-25 μM; for Antitumor index: CAKI2 viability A / MCF-12F viability B
Experimental: (§1) Then, peptide-containing test culture mediums for each concentration were prepared so that the concentrations of the sample peptides to be evaluated were 6.25 μM, 12.5 μM, and 25 μM and supplied to wells (that is, wells after the pre-incubation) in which 90 μL of cells to be evaluated were cultured in each well. Then, the 96-hole (well) plate was returned to the CO2 incubator and incubated under conditions of 37° C. and 5% CO2 for 48 hours.
(§2) After the incubation for 48 hours was completed, the culture medium in each well was substituted with 100 μL of a fresh culture medium containing no peptide, and additionally, 10 μL of a cell proliferation measurement reagent “Cell Counting Kit-8” (product, commercially available from Dojindo Laboratories) containing a “water-soluble tetrazolium salt (WST-8)” as a coloring reagent was added to each well. Then, the 96-well plate was returned to the CO2 incubator and incubated under conditions of 37° C., and 5% CO2 for 1.5 hours to 2 hours.
(§3) After the incubation was completed, the cell culture solution to which the reagent was added was collected and the cell viability (%) was calculated according to a colorimetric method in which an absorbance at a wavelength of 450 nm (value corrected by the absorbance at a wavelength of 620 nm: A450-A620) was measured based on the reduction of the tetrazolium salt. Specifically, a measured value (measurement absorbance) of a comparative test group in which the above incubation was performed for 48 hours in a culture medium containing no sample peptide was set as a cell viability of 100%. Then, the viability A (%) of A2058 cells and the viability B (%) of MCF-12F cells were calculated. In addition, an antitumor index was calculated based on the viability of A2058 cells and MCF-12F cells using the above Formula (1), and thus the antitumor activity of the sample peptide with respect to A2058 cells was evaluated.
The antitumor activity of Sample 3 and Sample 4 in the above Test Example 1 was evaluated using different tumor cells as targets.
Specifically, currently commercially available human kidney cancer cell lines (CAKI2) were used as test tumor cells. In addition, the above MCF-12F cells were used for comparison.
a McCoy's 5A culture medium (product, commercially available from Gibco) containing 2 mM of L-glutamine, 3,000 mg/L of glucose, 100 unit/mL of penicillin, 100 μg/mL of streptomycin, and 10% fetal bovine serum (FBS).
Details of the test were as those described in Test Example 2. The antitumor index based on the viabilities of CAKI2 cells and MCF-12F cells calculated using the above Formula (1) is shown in Table 3.

[2] = test system: human melanoma (A2058) cell lines; experiment: Antitumor index from viability of A2058 cells vs MCF-12F normal cells (Cell Counting Kit-8, WST-8); assay type: cell-based; conditions: 48 hours; for Antitumor activity / proliferation of A2058 cells (in words): 6.25-25 μM; for Antitumor index: A2058 viability A / MCF-12F viability B, n=6 wells
Experimental: Specifically, for example, a test using a conventionally known cell proliferation measurement reagent using a tetrazolium salt is performed so that the antitumor index can be calculated. In a preferable aspect, first, the antitumor composition disclosed here is added to a culture solution containing tumor cells, culture is performed for a predetermined time (for example, 24 hours or longer and 72 hours or shorter), and the viability A (%) of tumor cells is calculated. In addition, the viability B (%) of normal cells cultured under the same conditions is calculated. Then, the antitumor index based on the viabilities of tumor cells and normal cells calculated in this manner can be evaluated according to, for example, the following Formula (1):
Antitumor index based on viabilities of tumor cells and normal cells=A/B (1).
The antitumor activity of the peptides of Samples 1 to 4 synthesized in the above Test Example 1 was evaluated using human-derived cultured tumor cells as targets.
Specifically, currently commercially available human melanoma (A2058) cell lines were used as test tumor cells. In addition, a normal human mammary epithelial cell culture line (MCF-12F) was used for comparison. Here, culture solutions of respective cells are as follows.
A2058 cells and MCF-12F cells were cultured and prepared so that the number of cells per well in a 96-hole (well) plate was about 5×10^3. An amount of the culture medium in this case was 100 μL per well.
Next, the 96-hole (well) plate was placed in a CO2 incubator and pre-incubated under conditions of 37° C. and 5% CO2 for about 1 day (21 hours to 24 hours).
as §1
Here, the number of test wells (n) at peptide concentrations in peptide addition test groups was set to 6. Therefore, the value of the result shown in the following table is an average value of the results obtained in 6 test wells.
as §2, §3

[3] = test system: A2058 cells (tumor cells); assay type: cell-based, human; conditions: 48 hours; for Cell viability (%): human
Experimental: Then, peptide-containing test culture mediums for each concentration were prepared so that the concentrations of the sample peptides to be evaluated were 6.25 μM, 12.5 μM, and 25 μM and supplied to wells (that is, wells after the pre-incubation) in which 90 μL of cells to be evaluated were cultured in each well. Then, the 96-hole (well) plate was returned to the CO2 incubator and incubated under conditions of 37° C. and 5% CO2 for 48 hours. After the incubation for 48 hours was completed, the culture medium in each well was substituted with 100 μL of a fresh culture medium containing no peptide, and additionally, 10 μL of a cell proliferation measurement reagent “Cell Counting Kit-8” (product, commercially available from Dojindo Laboratories) containing a “water-soluble tetrazolium salt (WST-8)” as a coloring reagent was added to each well. Then, the 96-well plate was returned to the CO2 incubator and incubated under conditions of 37° C., and 5% CO2 for 1.5 hours to 2 hours. After the incubation was completed, the cell culture solution to which the reagent was added was collected and the cell viability (%) was calculated according to a colorimetric method in which an absorbance at a wavelength of 450 nm (value corrected by the absorbance at a wavelength of 620 nm: A450-A620) was measured based on the reduction of the tetrazolium salt. Specifically, a measured value (measurement absorbance) of a comparative test group in which the above incubation was performed for 48 hours in a culture medium containing no sample peptide was set as a cell viability of 100%. Then, the viability A (%) of A2058 cells and the viability B (%) of MCF-12F cells were calculated. In addition, an antitumor index was calculated based on the viability of A2058 cells and MCF-12F cells using the above Formula (1), and thus the antitumor activity of the sample peptide with respect to A2058 cells was evaluated. Using tumor cells as targets, the antitumor activity was evaluated using a synthetic peptide having a sequence completely different from those of Samples 1 to 4. Specifically, the viability (%) of A2058 cells (tumor cells) when Sample 5 was treated was evaluated. Details of the test were as those described in Test Example 2. Here, the viability of A2058 cells cultured in a culture medium containing no Sample 5 for the same time was set as 100%, and the viability (%) of A2058 cells cultured under the treatment of Sample 5 was calculated.

[4] = test system: human melanoma cell line (SK-MEL5); experiment: Antitumor index from viability of SK-MEL5 cells vs MCF-12F normal cells (Cell Counting Kit-8, WST-8); assay type: cell-based; conditions: 6.25 μM, 48 hours

Row | Substance | Proliferation of CAKI2 cells (in words) [1] | Antitumor index ([1]; peptide 6.25 μM) | Antitumor index ([1]; peptide 12.5 μM) | Antitumor index ([1]; peptide 25 μM) | Antitumor activity / proliferation of A2058 cells (in words) [2] | Antitumor index ([2]; peptide 6.25 μM) | Antitumor index ([2]; peptide 12.5 μM) | Antitumor index ([2]; peptide 25 μM) | Antitumor activity (in words) ([3]; A2058 cells, 6.25-25 μM) | Cell viability (%) ([3]; 6.25 μM) | Cell viability (%) ([3]; 12.5 μM) | Cell viability (%) ([3]; 25 μM) | Proliferation of SK-MEL5 cells (in words) [4]
1 | IAAVIFGFLATAAYAVNTFLAKKRTLRKNDRKKR (IAAVIFGFLATAAYAVNTFLAKKRTLRKNDRKKR-NH2) [Sample 4] | significantly reduced proliferation | 1.41 | 0.83 | 0.22 | stronger antitumor activity | 0.84 | 0.65 | 0.12 | – | – | – | – | –
2 | MGSNLSPQLCLMPFILGLLSGGVTTKKRTLRKNDRKKR-NH2 [Sample 5] | – | – | – | – | – | – | – | – | no antitumor activity | 110.7 | 109.9 | 113.6 | –
3 | VAQVILALIAFICIETIMACSKKRTLRKNDRKKR (VAQVILALIAFICIETIMACSKKRTLRKNDRKKR-NH2; cysteine pairing not given here) [Sample 1] | – | – | – | – | – | 1.17 | 0.71 | 0.74 | – | – | – | – | –
4 | LVNTGLSAFLFFIASIVLAALKKRTLRKNDRKKR (LVNTGLSAFLFFIASIVLAALKKRTLRKNDRKKR-NH2) [Sample 3] | significantly reduced proliferation | 0.77 | 0.1 | – | stronger antitumor activity | – | – | – | – | – | – | – | significantly reduced proliferation
5 | YFFEFVSCSAFVVTGVLLIMFKKRTLRKNDRKKR [Sample 2] | – | – | – | – | – | 0.79 | 0.61 | 0.52 | – | – | – | – | –
